According to patent US8367724B2, “Ester compound and use thereof” (Sumitomo Chemical Company, Limited, priority 2007, dated 2013):

Tests used:
[1] = system: common mosquito (Culex pipens pallens) females; assay: Mortality of common mosquito females, oil solution sprayed in a chamber (Test Example 2); assay type: in vivo; details: 0.7 ml of 0.00625% oil solution sprayed in 70 cm cubic chamber; ten females; recovered after ten minutes; dead counted after 24 hours; 2 repetition
Procedure: Each 0.00625 parts of the present compounds (1) to (3) produced in the above production Examples was dissolved in 10 parts of dichloromethane, and the solution was mixed with 89.99375 parts of deodorized kerosene to prepare a 0.00625% oil solution.
Ten common mosquito (Culex pipens pallens) females were released in a cubic chamber having each side of 70 cm, and 0.7 ml of the 0.00625% oil solution of the present compound prepared above was sprayed into the chamber through a small window on a side of the chamber using a spraying gun at a pressure of 8.8×10^4 Pa. After ten minutes, common mosquito females were recovered in a clean cup (bottom diameter 8.2 cm) with a cotton wool containing a 0.5% aqueous sugar, and allowed to stand until the next day. After 24 hours, the number of dead mosquitoes was counted, and a mortality was calculated (2 repetition).
In addition, the same as above test was performed using, in place of present compounds (1) to (3), 4-methoxymethyl-2,3,5,6-tetrafluorobenzyl (1R)-trans-3-(2-cyano-1-propenyl)-2,2-dimethylcyclopropanecarboxylate (ratio of isomers regarding double bond: Z/E=about 2/1; compound described in U.S. Pat. No. 6,908,945B2; hereinafter refereed to as Comparative Compound (4)) as a control.

[2] = system: Adult houseflies; assay: Knock-down of adult houseflies, oil solution sprayed in a chamber (Test Example 1); assay type: in vivo, housefly; details: 0.7 ml of 0.025% oil solution sprayed in 70 cm cubic chamber; 10 adult houseflies; counted two minutes after spraying; 2 repetitions
Procedure: Each 0.025 part of the present compounds (1) to (3) produced in the above Production Examples was dissolved in 10 parts of dichloromethane, and the solution was mixed with 89.975 parts of deodorized kerosene to prepare a 0.025% oil solution.
Adult houseflies (5 males and 5 females, total 10) were released in a cubic chamber having each side of 70 cm, and 0.7 ml of the 0.025% oil solution of the present compound prepared above was sprayed into the chamber through a small window on a side of the chamber using a spraying gun at a pressure of 8.8×10^4 Pa. Two minutes after spraying, the number of knocked-down houseflies was counted (2 repetitions).
In addition, the same as above test was performed by using, in place of the present compounds (1) to (3), 4-methyl-2,3,5,6-tetrafluorobenzyl (1R)-trans-3-(2-methyl-1-propenyl)-2,2-dimethylcyclopropanecarboxylate represented by the formula: […]

Structure (SMILES) | Mortality (%) [1] [%] | Number of knock-down houseflies [2]
COc1c(F)c(F)c(COC(=O)[C@@H]2[C@@H](C=C(C)C#N)C2(C)C)c(F)c1F (racemic) [Present compound (2), 4-methoxy-2,3,5,6-tetrafluorobenzyl (1R) trans-3-(2-cyano-1-propenyl)-2,2-dimethylcyclopropanecarboxylate] | 100 | 10
C=CCc1c(F)c(F)c(COC(=O)[C@@H]2[C@@H](C=C(C)C#N)C2(C)C)c(F)c1F (racemic) [Present compound (3), 4-allyl-2,3,5,6-tetrafluorobenzyl (1R)-trans-3-(2-cyano-1-propenyl)-2,2-dimethylcyclopropanecarboxylate] | 70 | 9
COCc1c(F)c(F)c(COC(=O)[C@@H]2[C@@H](C=C(C)C#N)C2(C)C)c(F)c1F [Comparative compound (4), 4-methoxymethyl-2,3,5,6-tetrafluorobenzyl (1R)-trans-3-(2-cyano-1-propenyl)-2,2-dimethylcyclopropanecarboxylate, reference compound] | 16 | –
CC(C#N)=C[C@@H]1[C@@H](C(=O)OCc2c(F)c(F)c(C)c(F)c2F)C1(C)C (racemic) [Present compound (1), 4-methyl-2,3,5,6-tetrafluorobenzyl (1R)-trans-3-(2-cyano-1-propenyl)-2,2-dimethylcyclopropanecarboxylate] | 95 | 10
C=CCc1c(F)c(F)c(COC(=O)[C@@H]2[C@@H](C=C(C)C)C2(C)C)c(F)c1F [Comparative compound (3), 4-allyl-2,3,5,6-tetrafluorobenzyl (1R)-trans-3-(2-methyl-1-propenyl)-2,2-dimethylcyclopropanecarboxylate, reference compound] | – | 0
CC(C)=C[C@@H]1[C@@H](C(=O)OCc2c(F)c(F)c(C)c(F)c2F)C1(C)C [Comparative compound (1), 4-methyl-2,3,5,6-tetrafluorobenzyl (1R)-trans-3-(2-methyl-1-propenyl)-2,2-dimethylcyclopropanecarboxylate, reference compound] | – | 0
COc1c(F)c(F)c(COC(=O)[C@@H]2[C@@H](C=C(C)C)C2(C)C)c(F)c1F [Comparative compound (2), 4-methoxy-2,3,5,6-tetrafluorobenzyl (1R)-trans-3-(2-methyl-1-propenyl)-2,2-dimethylcyclopropanecarboxylate, reference compound] | – | 0
